Patent US6030969A, “5,6,7-trisubstituted-4-aminopyrido[2,3-D] pyrimidine compounds” (Abbott Laboratories, priority 1998, dated 2000)
Counter-ions that a name gives are not always drawn.

Each compound was assayed on male CF1 mice (hot plate analgesia) (assay: Mouse hot plate assay (hot plate test of analgesia)). Conditions: 30 μmol/kg i.p., thirty minutes after pretreatment, 55° C. hot plate; vehicle alone 72.76±10.51 seconds.
Assay type: in vivo
Experimental: The compounds of the invention were tested in vivo in the hot plate test of analgesia in mammals such as mice. […] Mouse Hot Plate Assay […] At the end of the pretreatment period, the mice are placed in an Omnitech Electronics Automated 16 Animal Hot Plate Analgesia Monitor (Columbus, Ohio; Model […]) in individual, 9.8×7.2×15.3 cm (l×w×h) plastic enclosures on top of a copper plate warmed to 55° C. […] sensors located near the top of each enclosure record beam crossings that occur as the mice jump off of the heated surface. Latency times for each jump are automatically recorded, and latency to both the first and tenth jumps are used for data analysis.

SMILES	latency to 10th jump
COCCN(C)c1ccc(-c2nc3ncnc(N)c3c(-c3cc(Br)cs3)c2-c2ccc(OC)c(OC)c2)cc1.Cl [Example 19, 4-amino-5-(4-bromothiophen-2-yl)-6-(3,4-dimethoxyphenyl)-7-(4-(N-methyl-N-(2-methoxyethyl)amino)phenyl)pyrido [2,3-d]pyrimidine hydrochloride]	142.13 s
CN(C)c1ccc(-c2nc3ncnc(N)c3c(-c3ccccc3)c2-c2ccccc2)cc1.Cl.Cl [Example 27, 4-amino-5,6-diphenyl-7-(4-dimethylaminophenyl)pyrido [2,3-d]pyrimidine dihydrochloride]	154.86 s

What follows are compounds tested against adenosine kinase (Homo sapiens, UniProt P55263) (assay: Inhibition of adenosine kinase in vitro). Conditions: Table 1, read-out: IC50, Inhibition of Adenosine Kinase by Representative Compounds of the Invention.
Sequence of adenosine kinase (P55263 whole entry): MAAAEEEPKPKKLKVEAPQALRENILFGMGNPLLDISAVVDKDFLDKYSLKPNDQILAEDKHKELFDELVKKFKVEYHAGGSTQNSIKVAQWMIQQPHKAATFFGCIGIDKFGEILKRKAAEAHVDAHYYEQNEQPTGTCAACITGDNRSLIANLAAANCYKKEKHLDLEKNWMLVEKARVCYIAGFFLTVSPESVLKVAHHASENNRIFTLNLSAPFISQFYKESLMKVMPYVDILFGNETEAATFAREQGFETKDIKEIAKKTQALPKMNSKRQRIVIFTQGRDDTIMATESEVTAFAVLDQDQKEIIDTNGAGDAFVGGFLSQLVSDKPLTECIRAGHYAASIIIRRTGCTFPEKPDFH
Assay type: biochemical
Excerpt: The adenosine kinase to be inhibited can be located in vitro, in situ or in vivo. Where the adenosine kinase is located in vitro, adenosine kinase is contacted with the inhibitor compound, typically by adding the compound to an aqueous solution containing the enzyme, radiolabeled substrate adenosine, magnesium chloride and ATP. The enzyme can exist in intact cells or in isolated subcellular fractions containing the enzyme. The enzyme is then maintained in the presence of the inhibitor for a period of time and under suitable physiological conditions. Means for determining maintenance times are well known in the art and depend inter alia on the concentrations of enzyme and the physiological conditions. Suitable physiological conditions are those necessary to maintain adenosine kinase viability and include temperature, acidity, tonicity and the like. Inhibition of adenosine kinase can be performed, by example, according to standard procedures well known in the art (Yamada, et al., Comp. Biochem. Physiol. 1982, 71B: 367-372). […] In vitro adenosine kinase activity can be measured using any of the standard procedures well known in the art. By way of example, cells containing adenosine kinase, such as IMR-32 human neuroblastoma cells, are cultured in the presence and absence of an inhibitor. Inhibition is measured as the ability to inhibit phosphorylation of endogenous or externally applied ^14 C-adenosine by these cells. The cells can be intact or broken. The specificity of adenosine kinase inhibitory activity is determined by studying the effects of inhibitors on adenosine A1 and A2α receptor binding, adenosine deaminase activity and adenosine transport. Numerous inhibitor compounds of the present invention were tested in vitro and found to inhibit adenosine kinase activity.

IC50	SMILES
1 nM	COc1ccc(-c2c(-c3cccs3)nc3ncnc(N)c3c2-c2cccc(Br)c2)cc1OC [Example 6, 4-amino-5-(3-bromophenyl)-6-(3,4-dimethoxyphenyl)-7-(thiophen-2-yl)pyrido[2,3-d]pyrimidine]
0.3 nM	COc1ccc(-c2c(-c3cccs3)nc3ncnc(N)c3c2-c2cc(Br)cs2)cc1OC [Example 11, 4-amino-5-(4-bromothiophen-2-y)-6-(3,4-dimethoxyphenyl)-7-(thiophen-2-yl)pyrido[2,3-d]pyrimidine hydrochloride]
1 nM	COc1ccc(-c2c(-c3cccs3)nc3ncnc(N)c3c2-c2cccc(Cl)c2)cc1OC [Example 12, 4-amino-5-(3-chlorophenyl)-6-(3,4-dimethoxyphenyl)-7-(thiophen-2-yl)pyrido[2,3-d]pyrimidine hydrochloride]
0.1 nM	COCCN(C)c1ccc(-c2nc3ncnc(N)c3c(-c3cc(Br)cs3)c2-c2ccc(OC)c(OC)c2)cc1.Cl [Example 19, 4-amino-5-(4-bromothiophen-2-yl)-6-(3,4-dimethoxyphenyl)-7-(4-(N-methyl-N-(2-methoxyethyl)amino)phenyl)pyrido [2,3-d]pyrimidine hydrochloride]

Further lines, the compound ahead of its results:

SMILES	IC50
CCCCCc1c(-c2ccc(N(C)C)cc2)nc2ncnc(N)c2c1-c1ccc(F)c(Br)c1 [Example 1, 4-amino-5-(3-bromo-4-fluorophenyl)-6-pentyl-7-(4-(dimethylamino)phenyl)pyrido[2,3-d]pyrimidine]	80 nM
CCc1c(-c2cccs2)nc2ncnc(N)c2c1-c1cccc(Br)c1 [Example 4, 4-amino-5-(3-bromophenyl)-6-ethyl-7-(thiophen-2-yl)pyrido[2,3-d]pyrimidine]	3 nM
CCOC(=O)Cc1c(-c2cccs2)nc2ncnc(N)c2c1-c1cccc(Br)c1 [Example 8, 4-amino-5-(3-bromophenyl)-6-ethoxycarbonylmethyl-7-(thiophen-2-yl)pyrido[2,3-d]pyrimidine hydrochloride]	3 nM
COc1cccc(Cc2c(-c3cccs3)nc3ncnc(N)c3c2-c2cccc(Br)c2)c1 [Example 9, 4-amino-5-(3-bromophenyl)-6-(3-methoxyphenylmethyl)-7-(thiophen-2-yl)pyrido[2,3-d]pyrimidine hydrochloride]	23 nM
CC(C)c1ccc(-c2c(-c3ccc(N(C)C)cc3)nc3ncnc(N)c3c2-c2ccc(C(C)C)cc2)cc1 [Example 25, 4-amino-5,6-(bis-4-(2-propyl)phenyl)-7-(4-dimethylaminophenyl)pyrido[2.3-d]pyrimidine]	4 nM
COCCN(C)c1ccc(-c2nc3ncnc(N)c3c(-c3ccccc3)c2-c2ccccc2)cc1 [Example 26, 4-amino-5-phenyl-6-phenyl-7-(4-(N-methyl-N-(2-methoxyethyl)amino)phenyl)pyrido[2,3-d]pyrimidine hydrochloride]	5 nM
CN(C)c1ccc(-c2nc3ncnc(N)c3c(-c3ccccc3)c2-c2ccccc2)cc1.Cl.Cl [Example 27, 4-amino-5,6-diphenyl-7-(4-dimethylaminophenyl)pyrido [2,3-d]pyrimidine dihydrochloride]	9 nM
Nc1ncnc2nc(-c3ccc(N4CCOCC4)nc3)c(-c3ccc(F)cc3)c(-c3cccc(Br)c3)c12 [Example 39, 4-amino-5-(3-bromophenyl)-6-(4-fluorophenyl)-7-(6-morpholinyl-3-pyridinyl)pyrido[2,3-d]pyrimidine hydrochloride]	5 nM
Nc1ncnc2nc(-c3ccc(N4CCOCC4)nc3)c(-c3ccccc3)c(-c3ccccc3)c12 [Example 40, 4-amino-5-phenyl-6-phenyl-7-(6-morpholinyl-3-pyridinyl)pyrido [2,3-d]pyrimidine hydrochloride]	3 nM
Nc1ncnc2nc(-c3ccc(N4CCOCC4)nc3)c(-c3ccccc3)c(-c3cccc(Br)c3)c12 [Example 41, 4-amino-5-(3-bromophenyl)-6-phenyl-7-(6-morpholinyl-3-pyridinyl)pyrido [2,3-d]pyrimidine hydrochloride]	2 nM
